Results from the METLIN SMRT retention time set (Domingo-Almenara et al. 2019).

Assay: gradient 5% acetonitrile 3 min, to 50% in 2 min, to 85% in 15 min, held 3 min, 100 µL/min
Details: column: Zorbax Extend-C18 2.1 x 50 mm; eluents: water / acetonitrile, 0.1% formic acid
Summary of the method: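 Retention times come from adduct peaks that were picked computationally and then checked by hand. The standards, pure and pooled in mixtures of ~100 molecules, were run on a Zorbax Extend-C18 column (2.1 × 50 mm, 1.8 μm) at 100 μL/min with water and acetonitrile, each with 0.1% formic acid. Detection was by quadrupole time-of-flight mass spectrometry in positive and negative ionization mode, with a dead volume of 40 μL and a dwell volume of 900 μL.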

Row | Structure (SMILES) | RP-LC retention time
1 | CN(C)CCC[C@@]1(c2ccc(F)cc2)OCc2cc(C#N)ccc21 | 724 s
2 | O=C(NC1CC1)c1ccc(-c2ccc(N3CCCCC3)nc2)cc1 | 613 s
3 | O=S(=O)(c1ccc2c(c1)CCC2)N1CCCC1c1nc(-c2ccc(Cl)cc2)no1 (stereo not given) | 1310 s
4 | CCN(CC)C(=O)Cn1nc(-c2nc(-c3ccc(C)cc3)no2)c2ccccc21 | 1150 s
5 | COc1ccc(CC(=O)N2CCC[C@@H]2C(=O)NCc2csc(-c3ccccc3)n2)c(Cl)c1 | 880 s
6 | Cc1c(C2CCN(C(=O)Cc3ccc(F)cc3)CC2)noc1N | 698 s
7 | CC(C)NC(=O)Cn1c(=O)cc(-c2nc(C3CC3)no2)c2ccccc21 | 806 s
8 | Cc1ccc(CNC(=O)c2ncn3c2C(=O)N(C2CC2)C(C)(C(=O)NCc2cccc(C)c2)C3)cc1 (stereo not given) | 827 s
9 | COc1ccc(NS(=O)(=O)c2cc3c4c(c2)CCC(=O)N4CCC3)cc1OC | 730 s
10 | O=C(Nc1cccc(Cl)c1)N1CCc2nc[nH]c2C1 | 597 s
11 | O=S(=O)(Cc1ccccc1)N1CCC2(CC1)CC(OCc1ccccc1)CCO2 (stereo not given) | 1080 s
12 | Cc1cccc(C)c1NC(=O)N1CCC(c2cc(=O)n3nccc3n2C)CC1 | 635 s
13 | O=C(CN1C(=O)CCS(=O)(=O)c2ccccc21)Nc1ccc(Cl)cc1 | 797 s
14 | COCCOc1ccc2c(n1)CCN(C(=O)Nc1cc(C)ccc1C)C2 | 873 s
15 | Fc1ccc(-c2nc3cnc(Br)cn3c2Nc2ccc3c(c2)OCCO3)cc1 | 961 s
16 | CCSc1nnc(NC(=O)CSc2nc3ccccc3o2)s1 | 832 s
17 | CCN(C(=O)CSC1=Nc2ccccc2NC(CC(=O)OC)=C1)c1cccc(C)c1 | 1160 s
18 | COc1ccc(C(=O)CSc2nnc(-c3cc(C)oc3C)o2)cc1OC | 911 s
19 | COc1ccc(C2(C(=O)N3CCCC(c4nnnn4C)C3)CC2)cc1 (stereo not given) | 706 s
20 | O=C(Cn1cnc2c(nc3n2CCCCC3)c1=O)Nc1ccc2c(c1)OCCO2 | 659 s
21 | Clc1ccc(-c2csc(Nc3ccccc3)n2)cc1Cl | 1300 s
22 | CCC1CN2C=NC(N3CCN(C(=O)Nc4cccc(F)c4C)CC3)=CC2=N1 (stereo not given) | 671 s
23 | Cn1c(CN2CCN(C(=O)Nc3ccc4c(c3)OCO4)CC2)nc2cc(C(=O)N3CCCC3)ccc21 | 607 s

Row | Structure (SMILES) | RP-LC retention time
24 | Cc1cn(C)c(CC(=O)N2CCc3ccccc32)c1C(=O)O | 742 s
25 | COc1cc(NS(=O)(=O)c2cc(-c3nc(C)cs3)n(CC(=O)N3CCCC3)c2)cc(OC)c1 | 877 s
26 | CCN(Cc1ccccc1)C(=O)[C@H]1[C@@H](c2cc(OC)c(OC)c(OC)c2)c2cc3c(cc2[C@@H](O)[C@@H]1CO)OCO3 | 770 s
27 | COc1ccc2c(c1)CC(NC(=O)Nc1ccc(Br)cc1)CO2 (stereo not given) | 888 s
28 | Cc1ccc(C)c(NC(=O)C2CCN(S(C)(=O)=O)c3cc(Cl)ccc3O2)c1 (stereo not given) | 935 s
29 | O=C(CCc1c(-c2ccccc2)nc2ccccn12)Nc1ccc(Cl)cc1F | 715 s
30 | O=C(NCc1cccs1)c1ccc2c(c1)ncn2CCN1CCCC1 | 577 s
31 | CC(CCc1ccccc1)NC(=O)c1cc2sccc2n1Cc1ccc(Cl)cc1 (stereo not given) | 1260 s
32 | O=C(c1c(F)cccc1F)N1CCN=C1N1CCN(c2ccccc2F)CC1 | 720 s
33 | O=C(Cn1cccc(-c2nc(-c3ccccc3)no2)c1=O)Nc1ccc(Cl)c(C(F)(F)F)c1 | 1040 s
34 | Cn1c(=O)oc2cc(-c3noc(/C=C/c4ccccc4)n3)ccc21 | 1060 s
35 | CS(=O)(=O)Nc1ccc(C2(C(=O)NCc3ccccc3F)CCCCC2)cc1 | 904 s
36 | O=C(O)Cc1sc(NCc2ccccc2)nc1-c1ccccc1 | 681 s
37 | CC(C)CC(=O)N1CCCC1c1nc2ccccc2s1 (stereo not given) | 887 s
38 | CC(=O)N(Cc1ccc(F)cc1)Cc1ccc2c(c1)CN(C(=O)C(C)C)CCO2 | 804 s
39 | CC(C)n1cnnc1CC1CCN(C(=O)C2CCC2)CC1 | 611 s
40 | O=C(Nc1c(F)c(F)c(F)c(F)c1F)c1cc2sccc2n1Cc1ccc(F)cc1 | 1180 s
41 | O=c1[nH]c(-c2ccccc2)nc2sc(-c3ccccc3)cc12 | 980 s
42 | COc1ccc(CCNC(=O)c2c(N3CCCC3=O)c3cc(OC)ccc3n2C)c(OC)c1 | 877 s
43 | O=C(Nc1ccc(OCc2nnc(-c3ccc(Cl)cc3)o2)cc1)c1cccnc1 | 816 s
44 | O=C(c1cncc(Br)c1)N1CCC(OCC2CC2)C1 (stereo not given) | 730 s
45 | CCN1CCn2cc(C(=O)NCc3ccc(SC)cc3)nc2C1 | 596 s
